{"source": "patent US20260191768A1", "about": "“PHARMACEUTICAL COMPOSITION CONTAINING HIGH CONCENTRATION OF OPIRANSERIN” (VIVOZON, INC., priority 2022, published 2026)", "format_in_all_cases": "physicochemical", "key": {"[1]": {"experiment": "Room temperature stability of dissolved opiranserin hydrochloride", "settings": "for Opiranserin hydrochloride concentration, Initial: prepared at 40° C. for 3 hours", "method": "Among solvents showing high solubility in Experimental Example 1, the solvents that have no irritation or can minimize irritation when preparing medicines were selected as shown in Table 2. Then, the solubility and short-term room temperature stability of opiranserin hydrochloride according to the concentration content were estimated. Each preparation was prepared by adjusting the solvent according to the concentration, adding an excess amount of opiranserin hydrochloride, and stirring at 40° C. for 3 hours. The preparation was centrifuged, the supernatant was transferred to a glass vial, and stored at room temperature to observe properties and analyze content. Liquid chromatography (HPLC) was used to analyze the content of opiranserin hydrochloride, and sampling was carried out upon completion of preparation and after storage at room temperature for 65 hours."}, "[2]": {"experiment": "Solubility measurement of opiranserin hydrochloride according to solvents (HPLC)", "settings": "for solubility at 7 days / solubility at 3 h: thermodynamic from solid; for solubility at 7 days: 25° C./7 days", "method": "An excess amount of opiranserin hydrochloride was added to the solvents shown in Table 1, stirred under the following conditions, centrifuged and filtered, and the filtrate was diluted. The solubility of the drug was measured using high-performance liquid chromatography (HPLC)."}, "[3]": {"experiment": "Solubility of opiranserin hydrochloride as stated in the description", "settings": "solvent not stated; regarded as \"sparingly soluble\""}, "[4]": {"experiment": "Screening of hydrotropes for improving solubility of opiranserin hydrochloride", "method": "After adding 50 mL of water for injection into a 200 mL beaker, a weight of hydrotrope corresponding to the target content was added thereto and stirred at room temperature to completely dissolve it. Then, a weight of opiranserin hydrochloride corresponding to the target concentration was added and stirred at room temperature to completely dissolve it. If it was not completely dissolved in some solvents, the temperature was raised to 40° C. and additional stirring was carried out. When the added materials were completely dissolved, water for injection was added to the beaker to reach the 100 mL mark and further stirred to ensure that the composition was completely mixed. The prepared compositions were filtered using a 0.2 μm syringe filter and then dispensed into vials for injection."}, "[5]": {"settings": "Solvent 27: 1 w/v % Poloxamer 124"}, "[6]": {"settings": "Solvent 28: 5 w/v % Poloxamer 124"}, "[7]": {"settings": "Solvent 29: 1 w/v % Propylene glycol"}, "[8]": {"settings": "Solvent 30: 5 w/v % Propylene glycol"}}, "note": "Counter-ions that a name gives are not always drawn."}
{"smiles": "CCCCOc1c(OC)cc(C(=O)NCC2(N(C)C)CCOCC2)cc1OC", "note": "[Opiranserin hydrochloride, 4-butoxy-N-((4-(dimethylamino)tetrahydro-2H-pyran-4-yl)methyl)-3,5-dimethoxy benzamide]", "values": [{"measurement": "Change in properties after storage at room temperature for 65 hours", "setting": "[1]; Solvent 25: 1 w/v % Triacetin", "value": "Recrystallization generation"}, {"measurement": "Opiranserin hydrochloride concentration, After storage at room temperature for 65 hours", "setting": "[1]; Solvent 25: 1 w/v % Triacetin", "value": 44.33, "unit": "mg/mL"}, {"measurement": "Opiranserin hydrochloride concentration, Initial", "setting": "[1]; Solvent 25: 1 w/v % Triacetin", "value": 78.6, "unit": "mg/mL"}, {"measurement": "Change in properties after storage at room temperature for 65 hours", "setting": "[1]; Solvent 26: 6 w/v % Triacetin", "value": "Recrystallization generation"}, {"measurement": "Opiranserin hydrochloride concentration, After storage at room temperature for 65 hours", "setting": "[1]; Solvent 26: 6 w/v % Triacetin", "value": 38.1, "unit": "mg/mL"}, {"measurement": "Change in properties after storage at room temperature for 65 hours", "setting": "[1]; Solvent 26: 6 w/v % Triacetin, listed as opiranserin hydrochloride", "value": "recrystallization of needle-shaped structure was generated"}, {"measurement": "Opiranserin hydrochloride concentration, Initial", "setting": "[1]; Solvent 26: 6 w/v % Triacetin", "value": 86.1, "unit": "mg/mL"}, {"measurement": "Change in properties after storage at room temperature for 65 hours", "setting": "[1]; [5]", "value": "Recrystallization generation"}, {"measurement": "Opiranserin hydrochloride concentration, After storage at room temperature for 65 hours", "setting": "[1]; [5]", "value": 41.1, "unit": "mg/mL"}, {"measurement": "Opiranserin hydrochloride concentration, Initial", "setting": "[1]; [5]", "value": 72.1, "unit": "mg/mL"}, {"measurement": "Change in properties after storage at room temperature for 65 hours", "setting": "[1]; [6]", "value": "Recrystallization generation"}, {"measurement": "Opiranserin hydrochloride concentration, After storage at room temperature for 65 hours", "setting": "[1]; [6]", "value": 42.5, "unit": "mg/mL"}, {"measurement": "Opiranserin hydrochloride concentration, Initial", "setting": "[1]; [6]", "value": 83.8, "unit": "mg/mL"}, {"measurement": "Change in properties after storage at room temperature for 65 hours", "setting": "[1]; [7]", "value": "Recrystallization generation"}, {"measurement": "Opiranserin hydrochloride concentration, After storage at room temperature for 65 hours", "setting": "[1]; [7]", "value": 34.8, "unit": "mg/mL"}, {"measurement": "Opiranserin hydrochloride concentration, Initial", "setting": "[1]; [7]", "value": 61.8, "unit": "mg/mL"}, {"measurement": "Change in properties after storage at room temperature for 65 hours", "setting": "[1]; [8]", "value": "Recrystallization generation"}, {"measurement": "Opiranserin hydrochloride concentration, After storage at room temperature for 65 hours", "setting": "[1]; [8]", "value": 34.8, "unit": "mg/mL"}, {"measurement": "Opiranserin hydrochloride concentration, Initial", "setting": "[1]; [8]", "value": 74.0, "unit": "mg/mL"}, {"measurement": "solubility at 7 days", "setting": "[2]; 1 w/v % Caprylocaproyl polyoxyl 8 glyceride, 25 °C, aqueous with cosolvent or surfactant or cyclodextrin, Solvent 7: 1 w/v % Caprylocaproyl polyoxyl 8 glyceride", "value": 46.2, "unit": "mg/mL"}, {"measurement": "solubility at 7 days", "setting": "[2]; 1 w/v % Hydroxpropyl-beta-cyclodextrin, 25 °C, aqueous with cosolvent or surfactant or cyclodextrin, Solvent 10: 1 w/v % Hydroxpropyl-beta-cyclodextrin", "value": 49.2, "unit": "mg/mL"}, {"measurement": "solubility at 7 days", "setting": "[2]; 1 w/v % Macrogol 15 hydroxystearate, 25 °C, aqueous with cosolvent or surfactant or cyclodextrin, Solvent 8: 1 w/v % Macrogol 15 hydroxystearate", "value": 44, "unit": "mg/mL"}, {"measurement": "solubility at 7 days", "setting": "[2]; 1 w/v % PEG-6 caprylic/capric glyceride, 25 °C, aqueous with cosolvent or surfactant or cyclodextrin, Solvent 16: 1 w/v % PEG-6 caprylic/capric glyceride", "value": 49, "unit": "mg/mL"}, {"measurement": "solubility at 3 h", "setting": "[2]; 1 w/v % Poloxamer 124, 40 °C, aqueous with cosolvent or surfactant or cyclodextrin, Solvent 21: 1 w/v % Poloxamer 124, 40° C./3 hours", "value": 72.1, "unit": "mg/mL"}, {"measurement": "solubility at 7 days", "setting": "[2]; 1 w/v % Polyoxyl 35 castor oil, 25 °C, aqueous with cosolvent or surfactant or cyclodextrin, Solvent 6: 1 w/v % Polyoxyl 35 castor oil", "value": 42.1, "unit": "mg/mL"}, {"measurement": "solubility at 7 days", "setting": "[2]; 1 w/v % Polysorbate 80, 25 °C, aqueous with cosolvent or surfactant or cyclodextrin, Solvent 9: 1 w/v % Polysorbate 80", "value": 44.7, "unit": "mg/mL"}, {"measurement": "solubility at 3 h", "setting": "[2]; 1 w/v % Propylene glycol, 40 °C, water, Solvent 23: 1 w/v % Propylene glycol, 40° C./3 hours", "value": 61.8, "unit": "mg/mL"}, {"measurement": "solubility at 7 days", "setting": "[2]; 1 w/v % Triacetin, 25 °C, water, Solvent 13: 1 w/v % Triacetin", "value": 49.7, "unit": "mg/mL"}, {"measurement": "solubility at 3 h", "setting": "[2]; 1 w/v % Triacetin, 40 °C, water, Solvent 19: 1 w/v % Triacetin, 40° C./3 hours", "value": 78.6, "unit": "mg/mL"}, {"measurement": "solubility at 7 days", "setting": "[2]; 3 w/v % Hydroxpropyl-beta-cyclodextrin, 25 °C, aqueous with cosolvent or surfactant or cyclodextrin, Solvent 11: 3 w/v % Hydroxpropyl-beta-cyclodextrin", "value": 55.6, "unit": "mg/mL"}, {"measurement": "solubility at 7 days", "setting": "[2]; 3 w/v % PEG-6 caprylic/capric glyceride, 25 °C, aqueous with cosolvent or surfactant or cyclodextrin, Solvent 17: 3 w/v % PEG-6 caprylic/capric glyceride", "value": 57, "unit": "mg/mL"}, {"measurement": "solubility at 7 days", "setting": "[2]; 3 w/v % Triacetin, 25 °C, water, Solvent 14: 3 w/v % Triacetin", "value": 57.1, "unit": "mg/mL"}, {"measurement": "solubility at 3 h", "setting": "[2]; 5 w/v % Poloxamer 124, 40 °C, aqueous with cosolvent or surfactant or cyclodextrin, Solvent 22: 5 w/v % Poloxamer 124, 40° C./3 hours", "value": 83.8, "unit": "mg/mL"}, {"measurement": "solubility at 3 h", "setting": "[2]; 5 w/v % Propylene glycol, 40 °C, aqueous with cosolvent or surfactant or cyclodextrin, Solvent 24: 5 w/v % Propylene glycol, 40° C./3 hours", "value": 74, "unit": "mg/mL"}, {"measurement": "solubility at 7 days", "setting": "[2]; 6 w/v % Hydroxpropyl-beta-cyclodextrin, 25 °C, aqueous with cosolvent or surfactant or cyclodextrin, Solvent 12: 6 w/v % Hydroxpropyl-beta-cyclodextrin", "value": 63.3, "unit": "mg/mL"}, {"measurement": "solubility at 7 days", "setting": "[2]; 6 w/v % PEG-6 caprylic/capric glyceride, 25 °C, aqueous with cosolvent or surfactant or cyclodextrin, Solvent 18: 6 w/v % PEG-6 caprylic/capric glyceride", "value": 67.6, "unit": "mg/mL"}, {"measurement": "solubility at 7 days", "setting": "[2]; 6 w/v % Triacetin, 25 °C, aqueous with cosolvent or surfactant or cyclodextrin, Solvent 15: 6 w/v % Triacetin", "value": 72.7, "unit": "mg/mL"}, {"measurement": "solubility at 3 h", "setting": "[2]; 6 w/v % Triacetin, 40 °C, aqueous with cosolvent or surfactant or cyclodextrin, Solvent 20: 6 w/v % Triacetin, 40° C./3 hours", "value": "~86", "unit": "mg/mL"}, {"measurement": "solubility at 7 days", "setting": "[2]; 100% Ethanol, 25 °C, organic solvent or mixture, Solvent 2: 100% Ethanol", "value": 25.1, "unit": "mg/mL"}, {"measurement": "solubility at 7 days", "setting": "[2]; 100% Methanol, 25 °C, organic solvent or mixture, Solvent 3: 100% Methanol", "value": 36, "unit": "mg/mL"}, {"measurement": "solubility at 7 days", "setting": "[2]; 100% Polyethylene, 25 °C, organic solvent or mixture, Solvent 5: 100% Polyethylene", "value": 2.59, "unit": "mg/mL"}, {"measurement": "solubility at 7 days", "setting": "[2]; 100% Propylene glycol, 25 °C, organic solvent or mixture, Solvent 4: 100% Propylene glycol", "value": 13, "unit": "mg/mL"}, {"measurement": "solubility at 7 days", "setting": "[2]; Purified water, 25 °C, water, Solvent 1: Purified water", "value": 45.2, "unit": "mg/mL"}, {"measurement": "Opiranserin hydrochloride Solubility", "setting": "[2]; Solvent 20: 6 w/v % Triacetin, 40° C./3 hours", "value": 86.1, "unit": "mg/mL"}, {"measurement": "solubility", "setting": "[3]", "value": 25, "unit": "mg/mL"}, {"measurement": "Concentration of opiranserin hydrochloride that could be dissolved", "setting": "[4]; sodium benzoate used as a hydrotrope", "value": "up to 300 mg/mL"}, {"measurement": "Concentration of opiranserin hydrochloride that could be stably dissolved", "setting": "[4]; sodium salicylate used as a hydrotrope", "value": "up to 100 mg/mL"}, {"measurement": "Concentration of opiranserin hydrochloride that could be stably dissolved", "setting": "[4]; trisodium citrate dihydrate used as a hydrotrope", "value": "up to 100 mg/mL"}]}
